According to patent US10195174B2, “Carbonic anhydrase IX-related markers and use thereof” (SIGNALCHEM LIFESCIENCES CORPORATION, priority 2011, dated 2019):

Experiments:
parental 4T1 cell line = assay: Tumorsphere (TS) formation from doubling dilutions, minimum number of cells required to form a TS; assay type: cell-based, mouse; conditions: parental 4T1, hypoxia, 7 days, 200 μM CAI17 (FIG. 6) vs vehicle
Protocol: FIG. 6 is a graph of the number of cells required to initiate TS growth. Parental 4T1 were seeded at doubling dilutions and cultured under TS-forming conditions with 200 μM CAI17 or vehicle added, in normoxia or hypoxia. Mean±SEM of three independent experiments is shown. Statistical significance was confirmed using T-test, *P<0.001, **P<0.0060.
For culture in hypoxia, cells were maintained in 1% O2 and 5% CO2 balanced with N2 at 37 degrees C. in a humidified incubator in a sealed anaerobic workstation. Stable depletion of murine CAIX in 4T1 cells was carried out as described previously (Lou, McDonald et al. 2011).
Cultured 4T1 cells were grown as monolayers with twice weekly sub-cultivation in DMEM (Gibco) containing 5% fetal bovine serum (FBS) (Sigma). Subsequently, parental, shNS and shCAIX 4T1 were cultured as Tumor Spheres (TSs) in Mammocult™ media (StemCell Technologies, Vancouver, B.C., Canada) as per the manufacturer's instructions (Lock, McDonald et al. 2012). Alternatively, for spinner culture TS growth, monolayer cells were trypsinized and single-cell suspensions were incubated at 2×10^5 to 4×10^5 cells/ml in sealed glass spinner culture flasks (Bellco, Vineland, N.J.) under constant rotation, at 150 RPM, 37° C. in DMEM (5% FBS) pre-equilibrated to 5% CO2 as previously described (Oloumi, MacPhail et al. 2000). Cultures were grown for up to 3 weeks. […]

[1] = test system: parental 4T1 CD44+CD24−/low cells; assay: E-cadherin immunostaining of FACS-sorted 4T1 populations cultured in hypoxia with or without CAIX inhibitor; assay type: cell-based, mouse; conditions: hypoxia 5 days, 50 μM MST-104, vs vehicle
Protocol: FIG. 20 are images of parental 4T1 cells cultured as TSs in normoxia, disaggregated, stained for CD44, CD24 and collected by FACS. Viable CD44+CD24−/low or CD44−CD24+ cells were collected and cultured on glass coverslips in hypoxia for 5 days, with and without 50 μM MST-104, fixed and assessed by immunostaining for expression of E-cadherin.
4T1 TSs were incubated with trypsin, washed once in HF buffer (HBSS containing 2% Fetal Bovine Serum), then stained with anti-CD24-APC and anti-CD44-PECy7 using 0.3 μl of antibody per […] in 100 ul HF, and incubated on ice for 10 min. Following incubation, cells were washed once with HF buffer and resuspended in 300 ul HF buffer containing 4′,6-diamidino-2-phenylindole (DAPI; final concentration, 1 μg/ml). Cells were separated on an Aria™ cell sorter (BD Biosciences, San Jose, Calif., USA). Live cells were gated on the basis of forward and side scatter, and single cells were gated on the basis of forward scatter and pulse width. Gates were determined by analysis of unstained cells, isotype specific controls, and single stains. The CD44+CD24−/low or […] cells were not assessed for purity due to the low numbers of cells obtained. The cell counter of the flow cytometers was used to determine cell numbers. Cells were collected into DMEM media or HF buffer. […]

[2] = test system: MDA-MB-231 LM2-4Luc+ primary breast tumor xenografts; assay: Primary tumor growth of orthotopic breast tumor xenografts; assay type: in vivo, NOD/SCID mice; conditions: 38 mg/kg MST-104 or 30 mg/kg MST-205, vs vehicle controls, n=8/group
Protocol: FIG. 21 is a graphical representation of in vivo tumor growth. MDA-MB-231 LM2-4luc+ were implanted orthotopically into NOD/SCID mice. When tumors reached an average of […], animals received either vehicle, 38 mg/kg MST-104 or 30 mg/kg MST-205. Subsequent tumor growth was monitored. n=8/group.*P<0.02, **P<0.01.
All animal procedures and studies were carried out in accordance with protocols approved by the Institution Animal Care Committee at the BC Cancer Research Centre and the University of British Columbia (Vancouver, BC, Canada). For primary breast tumor xenografts, 2×10^6 MDA-MB-231 LM2-4Luc+ variant cells were suspended in a 50% Matrigel™/PBS solution and implanted orthotopically in 6-8 week-old female NOD.CB17-prkdcscid/J mice as previously described (Lou, McDonald et al. 2011). Therapy was initiated when tumors reached 200 mm^3. Primary tumor growth rates were calculated from caliper measurements using the modified ellipsoid formula (L×W2)/2. Tumor formation and metastasis progression was monitored and quantified using bioluminescent imaging as previously described (Lou, McDonald et al. 2011).
To evaluate the effect of CAIX inhibition on tumor growth and cancer stem cell expansion in vivo, primary breast tumor xenografts were established using a variant of the MDA-MB-231 cell line, MDA-MB-231 LM2-4Luc+. […] Tumor growth was assessed by caliper measurement and IVIS imaging.

[3] = test system: EpCAM+ population of MDA-MB-231 LM2-4Luc+ tumors; assay: EpCAM+ cancer stem cell population of excised primary tumors by FACS; assay type: in vivo, NOD/SCID mice; conditions: 27 days, 38 mg/kg MST-104 or 30 mg/kg MST-205, vs vehicle (mean 10% EpCAM+)
Protocol: FIGS. 22A and 22B are representative FACS plots (FIG. 22A) and a bar graph (FIG. 22B), showing the mean changes in EpCAM+ cells±SEM, from 3 mice. MDA-MB-231 LM2-4luc+ were implanted orthotopically into NOD/SCID mice. When tumors reached an average of […], animals received either vehicle or 38 mg/kg MST-104. After 27 days, primary tumors were removed, dissociated and EpCAM+ cell population assessed by FACS analysis. Statistical significance was confirmed using T-test. ***P<0.0331, **P<0.0224.
FIGS. 23A and 23B are representative FACS plots (FIG. 23A) and a bar graph (FIG. 23B) showing MDA-MB-231 LM2-4luc+ cells that were implanted orthotopically into NOD/SCID mice. […] After 27 days, primary tumors were removed, dissociated and EpCAM+ cell population assessed by FACS analysis. […]
(§1) All animal procedures and studies were carried out in accordance with protocols approved by the Institution Animal Care Committee at the BC Cancer Research Centre and the University of British Columbia (Vancouver, BC, Canada). […] Primary tumor growth rates were calculated from caliper measurements using the modified ellipsoid formula (L×W2)/2. Tumor formation and metastasis progression was monitored and quantified using bioluminescent imaging as previously described (Lou, McDonald et al. 2011).
The effect of CAIX inhibition on the primary tumor cancer stem cell population in vivo was quantified. […]

[4] = test system: MDA-MB-231 LM2-4 breast cancer cells; assay: CAIX inhibitor with and without paclitaxel: tumor volume, lung metastases (IVIS) and EpCAM+ population (FACS); assay type: in vivo, NOD-SCID mice; conditions: tumors excised at humane end point, vs vehicle controls, three tumors per group
Protocol: MDA-MB-231 LM2-4 Luc+ cells were implanted into NOD/SCID mice, tumors were established for 10 days and treatment was then initiated. Paclitaxel was administered by i.v. injection and MST-104 was provided by i.p. injection according to the dosing schedule outlined in the graph (arrows). n=7-8/group. *P<0.02, **P<0.002.
Heat maps indicating metastases are overlaid on grayscale images of the lungs.
The mean total photon flux±SEM for each group is shown.
FIGS. 29A-29E show representative FACS data. NOD-SCID mice mammary fat pad were inoculated with MDA-MB-231 LM2-4 breast cancer cells. Mice were IV dosed with Paclitaxel, or MST-104, or both drugs in combination, or vehicle. At the humane end point, tumours were excised and the viable EpCAM positive population was assessed by FACS.
At the humane end point, tumors were excised and the viable EpCAM positive population was assessed by FACS. […]
as §1, with “2011). […]” for “2011).”

[5] = test system: mTORC1 signaling pathway in MDA-MB-231 LM2-4Luc+ tumor cells; assay: Western blot of mTOR pathway components in tumor cells isolated from treated tumor-bearing mice; set-up: species or system NOD/SCID mice; conditions: in vivo treated tumors
Text: Levels of expression of Actin and GAPDH are shown as loading controls.
To assess the effect of inhibition of CAIX activity on the mTOR pathway by breast cancer cells in vivo, orthotopic human primary breast tumors using MDA-MB-231 LM2-4Luc^+ cells were established in NOD/SCID mice and treated tumor-bearing animals with vehicle or the CAIX-specific inhibitor MST-104. At the experimental end point, primary tumors were removed, dissociated and viable tumor cells lysed and subjected to Western blotting (Lock, McDonald et al. 2012). […] Raptor expression was not regulated following CAIX inhibition in vivo (Raptor/Actin densitometry: Vehicle 0.64 mean±0.05 SEM; U-104 mean 0.69±0.14 SEM).

SMILES	number of seeding cells required to form a TS (parental 4T1 cell line)	E-cadherin staining [1]	primary tumor growth (tumor volume) [2]	EpCAM+ population of primary tumors [3]	viable EpCAM positive population (mean percentage of EpCAM+ CSC) [4]	Raptor expression ([5]; Western blot, vs vehicle)	expression of the mTORC1 component mTOR ([5]; Western blot, vs vehicle)	mTORC1 signaling pathway ([5]; Western blot, vs vehicle)	phosphorylation and expression of 4EBP1 ([5]; Western blot, vs vehicle)	phosphorylation of Ser939 TSC2 ([5]; Western blot, vs vehicle)	Raptor/Actin densitometry ([5]; mean ± SEM (vehicle 0.64 ± 0.05))
NS(=O)(=O)c1ccc(CCNC(=S)Nc2ccc(-c3c4ccc(=O)cc-4oc4cc(O)ccc34)c(C(=O)O)c2)cc1 [CAI017]	significantly increased										
NS(=O)(=O)c1ccc(NC(=O)Nc2ccc(F)cc2)cc1 [MST-104]		robust E-cadherin staining	significant inhibition of primary tumor growth	statistically significant reduced EpCAM+ population	significant decrease	not regulated	abolished	inhibition of the mTORC1 signaling pathway	depleted phosphorylation and expression	reduced phosphorylation	0.69±0.14
CC(=O)O[C@H]1C(=O)[C@@]2(C)[C@H]([C@H](OC(=O)c3ccccc3)[C@]3(O)C[C@H](OC(=O)[C@H](O)[C@@H](NC(=O)c4ccccc4)c4ccccc4)C(C)=C1C3(C)C)[C@]1(OC(C)=O)CO[C@@H]1C[C@@H]2O [paclitaxel, reference compound]					increase in the mean percentage of EpCAM+CSC						
